Experimental data: PMC11871066, “Structure-based discovery of hydrocarbon-stapled paxillin peptides that block FAK scaffolding in cancer” (Nature Communications, 2025)

Experiments:
Experiment in all cases: Eurofins KINOMEscan profiling, 97 kinases
[1] = target: 97 kinases (kinase named in endpoint) (Homo sapiens, UniProt P52333); conditions: read-out: % Ctrl, JAK3(JH1domain-catalytic)
[2] = target: 97 kinases (kinase named in endpoint) (Homo sapiens, UniProt P50750); conditions: read-out: % Ctrl, CDK9
[3] = target: 97 kinases (kinase named in endpoint) (Homo sapiens, UniProt P42336); conditions: read-out: % Ctrl, PIK3CA
[4] = target: 97 kinases (kinase named in endpoint) (Homo sapiens, UniProt Q9UM73); conditions: read-out: % Ctrl, ALK
[5] = target: 97 kinases (kinase named in endpoint) (Homo sapiens, UniProt Q13177); conditions: read-out: % Ctrl, PAK2
[6] = target: 97 kinases (kinase named in endpoint) (Homo sapiens, UniProt Q96GD4); conditions: read-out: % Ctrl, AURKB
[7] = target: 97 kinases (kinase named in endpoint) (Homo sapiens, UniProt Q15303); conditions: read-out: % Ctrl, ERBB4
Sequence of 97 kinases (kinase named in endpoint) (Homo sapiens, UniProt Q15303) (Q15303 26-1308): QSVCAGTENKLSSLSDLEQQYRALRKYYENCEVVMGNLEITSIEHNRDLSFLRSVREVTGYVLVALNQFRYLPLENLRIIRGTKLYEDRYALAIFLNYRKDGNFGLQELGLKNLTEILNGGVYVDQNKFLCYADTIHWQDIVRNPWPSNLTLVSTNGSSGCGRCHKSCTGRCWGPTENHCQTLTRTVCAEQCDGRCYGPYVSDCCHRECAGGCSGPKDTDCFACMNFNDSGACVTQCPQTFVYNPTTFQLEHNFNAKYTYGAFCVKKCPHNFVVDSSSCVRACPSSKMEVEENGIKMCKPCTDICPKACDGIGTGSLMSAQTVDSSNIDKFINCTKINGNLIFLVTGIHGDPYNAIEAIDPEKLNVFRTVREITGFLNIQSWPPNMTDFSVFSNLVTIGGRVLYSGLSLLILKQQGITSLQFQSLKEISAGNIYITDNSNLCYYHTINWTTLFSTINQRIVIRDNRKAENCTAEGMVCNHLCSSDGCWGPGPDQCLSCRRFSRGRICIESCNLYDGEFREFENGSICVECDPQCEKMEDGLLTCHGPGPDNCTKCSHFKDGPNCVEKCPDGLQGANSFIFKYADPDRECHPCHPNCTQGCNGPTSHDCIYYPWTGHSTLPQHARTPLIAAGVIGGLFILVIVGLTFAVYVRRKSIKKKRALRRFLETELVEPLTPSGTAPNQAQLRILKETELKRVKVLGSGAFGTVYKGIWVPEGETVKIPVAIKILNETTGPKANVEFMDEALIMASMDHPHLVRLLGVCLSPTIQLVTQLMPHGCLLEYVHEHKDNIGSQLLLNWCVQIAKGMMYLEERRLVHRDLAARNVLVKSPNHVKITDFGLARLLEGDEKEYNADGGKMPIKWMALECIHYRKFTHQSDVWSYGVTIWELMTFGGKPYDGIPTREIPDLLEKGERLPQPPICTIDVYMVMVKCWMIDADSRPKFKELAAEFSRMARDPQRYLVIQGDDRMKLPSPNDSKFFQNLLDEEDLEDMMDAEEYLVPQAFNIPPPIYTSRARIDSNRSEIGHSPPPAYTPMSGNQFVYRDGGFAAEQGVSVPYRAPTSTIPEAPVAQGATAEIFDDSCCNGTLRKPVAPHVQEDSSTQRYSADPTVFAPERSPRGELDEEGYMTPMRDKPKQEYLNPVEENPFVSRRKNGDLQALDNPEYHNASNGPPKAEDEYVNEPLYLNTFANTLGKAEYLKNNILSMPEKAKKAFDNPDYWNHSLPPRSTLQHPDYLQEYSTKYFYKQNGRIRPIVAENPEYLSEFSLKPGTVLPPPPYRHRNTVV

[8] = target: 97 kinases (kinase named in endpoint) (Homo sapiens, UniProt P49841); conditions: read-out: % Ctrl, GSK3B
[9] = target: 97 kinases (kinase named in endpoint) (Homo sapiens, UniProt Q00536); conditions: read-out: % Ctrl, PCTK1
[10] = target: 97 kinases (kinase named in endpoint) (Homo sapiens, UniProt P00519, E255K); conditions: read-out: % Ctrl, ABL1(E255K)-phosphorylated
[11] = target: 97 kinases (kinase named in endpoint) (Homo sapiens, UniProt Q8NI60); conditions: read-out: % Ctrl, ADCK3
[12] = target: 97 kinases (kinase named in endpoint) (Homo sapiens, UniProt O14965); conditions: read-out: % Ctrl, AURKA
[13] = target: 97 kinases (kinase named in endpoint) (Homo sapiens, UniProt Q05397); conditions: read-out: % Ctrl, FAK
[14] = target: 97 kinases (kinase named in endpoint) (Homo sapiens, UniProt P00519, T315I); conditions: read-out: % Ctrl, ABL(T315I)-phosphorylated
[15] = target: 97 kinases (kinase named in endpoint) (Homo sapiens, UniProt P10721, T670I/V559D); conditions: read-out: % Ctrl, KIT(V559D,T670I)
[16] = target: 97 kinases (kinase named in endpoint) (Homo sapiens, UniProt P48730); conditions: read-out: % Ctrl, CSNK1D
[17] = target: 97 kinases (kinase named in endpoint) (Homo sapiens, UniProt P06213); conditions: read-out: % Ctrl, INSR
[18] = target: 97 kinases (kinase named in endpoint) (Homo sapiens, UniProt P09619); conditions: read-out: % Ctrl, PDGFRB
[19] = target: 97 kinases (kinase named in endpoint) (Homo sapiens, UniProt O00444); conditions: read-out: % Ctrl, PLK4
[20] = target: 97 kinases (kinase named in endpoint) (Homo sapiens, UniProt O00750); conditions: read-out: % Ctrl, PIK3C2B
Sequence of 97 kinases (kinase named in endpoint) (Homo sapiens, UniProt O00750) (O00750 whole entry): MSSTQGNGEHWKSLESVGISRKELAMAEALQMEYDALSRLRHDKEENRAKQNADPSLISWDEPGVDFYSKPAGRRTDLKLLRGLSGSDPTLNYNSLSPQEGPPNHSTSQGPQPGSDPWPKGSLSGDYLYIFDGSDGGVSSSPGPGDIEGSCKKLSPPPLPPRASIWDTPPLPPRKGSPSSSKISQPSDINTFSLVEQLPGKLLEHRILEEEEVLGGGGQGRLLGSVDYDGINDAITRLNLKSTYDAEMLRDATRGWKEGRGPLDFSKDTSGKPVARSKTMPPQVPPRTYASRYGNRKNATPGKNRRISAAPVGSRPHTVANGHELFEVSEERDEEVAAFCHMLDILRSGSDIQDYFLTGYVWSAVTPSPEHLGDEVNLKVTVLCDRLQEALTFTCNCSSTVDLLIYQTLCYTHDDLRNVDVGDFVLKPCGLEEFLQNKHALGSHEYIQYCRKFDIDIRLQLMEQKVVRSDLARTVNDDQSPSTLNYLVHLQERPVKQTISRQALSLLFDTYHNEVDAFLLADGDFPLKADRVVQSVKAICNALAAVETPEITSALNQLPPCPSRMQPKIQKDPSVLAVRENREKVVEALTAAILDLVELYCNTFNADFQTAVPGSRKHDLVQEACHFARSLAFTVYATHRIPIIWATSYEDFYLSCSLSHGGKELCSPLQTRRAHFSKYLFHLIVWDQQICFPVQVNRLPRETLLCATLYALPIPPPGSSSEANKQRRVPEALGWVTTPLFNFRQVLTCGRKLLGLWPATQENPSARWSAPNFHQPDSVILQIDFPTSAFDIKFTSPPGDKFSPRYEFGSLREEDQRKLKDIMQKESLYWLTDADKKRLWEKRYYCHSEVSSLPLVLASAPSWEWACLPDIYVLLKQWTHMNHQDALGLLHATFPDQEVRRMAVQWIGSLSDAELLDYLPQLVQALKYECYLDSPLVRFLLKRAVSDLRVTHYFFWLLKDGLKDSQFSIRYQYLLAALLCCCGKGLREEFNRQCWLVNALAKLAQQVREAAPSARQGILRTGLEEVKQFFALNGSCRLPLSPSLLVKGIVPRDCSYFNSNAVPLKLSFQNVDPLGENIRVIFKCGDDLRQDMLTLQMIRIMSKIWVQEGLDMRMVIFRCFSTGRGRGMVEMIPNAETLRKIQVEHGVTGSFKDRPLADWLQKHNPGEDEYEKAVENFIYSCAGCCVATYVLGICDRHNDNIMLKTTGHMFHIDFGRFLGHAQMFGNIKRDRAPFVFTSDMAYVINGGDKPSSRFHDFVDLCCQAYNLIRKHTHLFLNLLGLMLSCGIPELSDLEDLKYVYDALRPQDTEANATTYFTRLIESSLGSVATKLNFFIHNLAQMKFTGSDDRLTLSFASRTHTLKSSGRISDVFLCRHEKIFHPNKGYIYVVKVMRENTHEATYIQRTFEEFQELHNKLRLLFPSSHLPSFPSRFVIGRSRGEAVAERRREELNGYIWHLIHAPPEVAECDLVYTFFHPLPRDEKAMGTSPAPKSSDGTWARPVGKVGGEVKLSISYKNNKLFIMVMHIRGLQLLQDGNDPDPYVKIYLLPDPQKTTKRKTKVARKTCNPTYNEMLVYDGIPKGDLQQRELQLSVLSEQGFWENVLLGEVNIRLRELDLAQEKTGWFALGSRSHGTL

[21] = target: 97 kinases (kinase named in endpoint) (Homo sapiens, UniProt O15111); conditions: read-out: % Ctrl, IKK-alpha
[22] = target: 97 kinases (kinase named in endpoint) (Homo sapiens, UniProt Q9BUB5); conditions: read-out: % Ctrl, MKNK1
Sequence of 97 kinases (kinase named in endpoint) (Homo sapiens, UniProt Q9BUB5) (Q9BUB5 whole entry): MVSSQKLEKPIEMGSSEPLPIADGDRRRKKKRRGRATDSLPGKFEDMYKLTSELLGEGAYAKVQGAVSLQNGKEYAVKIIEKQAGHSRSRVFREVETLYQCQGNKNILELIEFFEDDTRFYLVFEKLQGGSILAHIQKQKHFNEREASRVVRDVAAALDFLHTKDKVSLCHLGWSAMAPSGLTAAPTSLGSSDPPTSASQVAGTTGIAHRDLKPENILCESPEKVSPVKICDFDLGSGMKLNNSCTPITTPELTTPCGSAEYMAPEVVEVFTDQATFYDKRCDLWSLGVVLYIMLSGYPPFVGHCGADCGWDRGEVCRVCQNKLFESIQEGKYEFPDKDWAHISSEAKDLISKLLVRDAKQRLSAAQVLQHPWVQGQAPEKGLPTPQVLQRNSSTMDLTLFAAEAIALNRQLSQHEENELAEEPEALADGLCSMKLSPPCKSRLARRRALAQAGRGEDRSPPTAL

[23] = target: 97 kinases (kinase named in endpoint) (Homo sapiens, UniProt Q9Y6R4); conditions: read-out: % Ctrl, MAP3K4
Sequence of 97 kinases (kinase named in endpoint) (Homo sapiens, UniProt Q9Y6R4) (Q9Y6R4 whole entry): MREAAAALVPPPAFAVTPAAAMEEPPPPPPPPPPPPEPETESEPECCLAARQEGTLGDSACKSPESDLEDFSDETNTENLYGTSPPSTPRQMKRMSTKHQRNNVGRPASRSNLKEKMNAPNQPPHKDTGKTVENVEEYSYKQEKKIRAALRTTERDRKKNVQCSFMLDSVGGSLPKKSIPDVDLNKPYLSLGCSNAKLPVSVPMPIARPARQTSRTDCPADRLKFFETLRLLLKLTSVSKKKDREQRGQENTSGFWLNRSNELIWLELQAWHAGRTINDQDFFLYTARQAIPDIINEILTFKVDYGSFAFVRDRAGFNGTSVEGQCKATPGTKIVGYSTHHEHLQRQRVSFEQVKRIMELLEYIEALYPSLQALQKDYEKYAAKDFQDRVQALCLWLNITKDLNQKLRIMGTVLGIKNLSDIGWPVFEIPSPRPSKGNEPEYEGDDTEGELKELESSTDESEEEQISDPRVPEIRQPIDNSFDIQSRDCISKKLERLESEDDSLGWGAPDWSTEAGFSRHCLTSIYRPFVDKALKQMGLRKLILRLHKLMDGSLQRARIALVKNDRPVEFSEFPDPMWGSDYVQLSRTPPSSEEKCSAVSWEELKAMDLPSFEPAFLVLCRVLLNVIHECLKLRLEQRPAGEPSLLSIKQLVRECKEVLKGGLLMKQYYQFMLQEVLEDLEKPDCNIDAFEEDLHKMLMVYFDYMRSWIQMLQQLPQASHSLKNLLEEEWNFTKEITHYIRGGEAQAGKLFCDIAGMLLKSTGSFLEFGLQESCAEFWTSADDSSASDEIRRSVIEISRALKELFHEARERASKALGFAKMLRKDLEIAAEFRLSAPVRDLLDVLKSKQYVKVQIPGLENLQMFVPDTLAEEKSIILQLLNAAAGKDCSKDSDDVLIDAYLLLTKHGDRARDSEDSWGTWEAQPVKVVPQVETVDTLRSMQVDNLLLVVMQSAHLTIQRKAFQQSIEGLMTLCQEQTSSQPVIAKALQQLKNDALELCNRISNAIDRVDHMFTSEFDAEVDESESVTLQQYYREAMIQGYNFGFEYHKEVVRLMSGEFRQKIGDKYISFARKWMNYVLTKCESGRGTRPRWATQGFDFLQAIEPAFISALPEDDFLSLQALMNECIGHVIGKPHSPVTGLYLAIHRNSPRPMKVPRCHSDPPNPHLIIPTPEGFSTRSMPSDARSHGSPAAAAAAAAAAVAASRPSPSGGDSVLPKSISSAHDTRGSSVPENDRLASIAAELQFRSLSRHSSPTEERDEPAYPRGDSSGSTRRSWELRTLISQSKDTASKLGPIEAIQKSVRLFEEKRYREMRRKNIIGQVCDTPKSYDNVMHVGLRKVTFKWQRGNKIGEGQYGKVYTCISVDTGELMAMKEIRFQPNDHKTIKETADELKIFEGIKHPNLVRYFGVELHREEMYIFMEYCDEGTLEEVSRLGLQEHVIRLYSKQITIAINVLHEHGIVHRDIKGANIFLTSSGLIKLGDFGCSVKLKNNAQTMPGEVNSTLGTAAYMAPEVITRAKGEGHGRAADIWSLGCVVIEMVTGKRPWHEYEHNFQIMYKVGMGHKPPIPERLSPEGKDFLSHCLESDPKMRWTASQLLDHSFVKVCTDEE

[24] = target: 97 kinases (kinase named in endpoint) (Homo sapiens, UniProt Q13153); conditions: read-out: % Ctrl, PAK1
[25] = target: 97 kinases (kinase named in endpoint) (Homo sapiens, UniProt P31749); conditions: read-out: % Ctrl, AKT1
[26] = target: 97 kinases (kinase named in endpoint) (Homo sapiens, UniProt O75116); conditions: read-out: % Ctrl, ROCK2
[27] = target: 97 kinases (kinase named in endpoint) (Homo sapiens, UniProt P30530); conditions: read-out: % Ctrl, AXL
[28] = target: 97 kinases (kinase named in endpoint) (Homo sapiens, UniProt P35968); conditions: read-out: % Ctrl, VEGFR2

SMILES	remaining binding at 1 µM [1] [%]	remaining binding at 1 µM [2] [%]	remaining binding at 1 µM [3] [%]	remaining binding at 1 µM [4] [%]	remaining binding at 1 µM [5] [%]	remaining binding at 1 µM [6] [%]	remaining binding at 1 µM [7] [%]	remaining binding at 1 µM [8] [%]	remaining binding at 1 µM [9] [%]	remaining binding at 1 µM [10] [%]	remaining binding at 1 µM [11] [%]	remaining binding at 1 µM [12] [%]	remaining binding at 1 µM [13] [%]	remaining binding at 1 µM [14] [%]	remaining binding at 1 µM [15] [%]	remaining binding at 1 µM [16] [%]	remaining binding at 1 µM [17] [%]	remaining binding at 1 µM [18] [%]	remaining binding at 1 µM [19] [%]	remaining binding at 1 µM [20] [%]	also measured
CCCCCCCCCCCCCC(=O)N[C@@H](CC(N)=O)C(=O)N[C@@H](CC(C)C)C(=O)N[C@]1(C)CCCCCCC=CCCC[C@@](C)(C(=O)N[C@@H](CCC(=O)O)C(=O)N[C@@H](CC(C)C)C(=O)N[C@@H](CC(N)=O)C(N)=O)NC(=O)[C@H](CC(C)C)NC(=O)[C@H](CC(C)C)NC(=O)[C@H](CCCNC(=N)N)NC(=O)[C@H](CC(=O)O)NC(=O)[C@H](CC(C)C)NC(=O)[C@H](CCC(=O)O)NC1=O [compound 2012]	83	100	100	100	100	100	83	100	100	70	100	100	96	100	93	97	100	94	97	100	remaining binding at 1 µM [21]: 100%; remaining binding at 1 µM [22]: 100%; remaining binding at 1 µM [23]: 90%; remaining binding at 1 µM [24]: 100%; remaining binding at 1 µM [25]: 100%; remaining binding at 1 µM [26]: 100%; remaining binding at 1 µM [27]: 74%; remaining binding at 1 µM [28]: 100%
CNC(=O)c1ccc(Nc2ncc(C(F)(F)F)c(NCc3nccnc3N(C)S(C)(=O)=O)n2)cc1 [defactinib]	0	90	100	32	45	13	100	75	48	82	93	3.9	0.1	4.9	37	93	61	18	39	100	remaining binding at 1 µM [21]: 100%; remaining binding at 1 µM [22]: 100%; remaining binding at 1 µM [23]: 69%; remaining binding at 1 µM [24]: 65%; remaining binding at 1 µM [25]: 100%; remaining binding at 1 µM [26]: 43%; remaining binding at 1 µM [27]: 3.6%; remaining binding at 1 µM [28]: 37%
